The text below walks through data of patent publication US7662832B2, “Pyrrolo[2,3-c]pyridine derivatives and processes for the preparation thereof” (priority 2004, dated 2010).

Where a name gives a salt, the structure may show the parent alone.

The target in the assay is Proton Pump (H^+/K^+-ATPase) (Sus scrofa, UniProt P19156). Nature of the assay: Inhibitory effects on proton pump (H^+/K^+-ATPase) activity. As to conditions: hog gastric vesicles; K^+ stimulated H^+/K^+-ATPase activity; 30 minutes at 37° C. It counts as biochemical.
Sequence of Proton Pump (H^+/K^+-ATPase) (P19156 2-1034 limits assumed): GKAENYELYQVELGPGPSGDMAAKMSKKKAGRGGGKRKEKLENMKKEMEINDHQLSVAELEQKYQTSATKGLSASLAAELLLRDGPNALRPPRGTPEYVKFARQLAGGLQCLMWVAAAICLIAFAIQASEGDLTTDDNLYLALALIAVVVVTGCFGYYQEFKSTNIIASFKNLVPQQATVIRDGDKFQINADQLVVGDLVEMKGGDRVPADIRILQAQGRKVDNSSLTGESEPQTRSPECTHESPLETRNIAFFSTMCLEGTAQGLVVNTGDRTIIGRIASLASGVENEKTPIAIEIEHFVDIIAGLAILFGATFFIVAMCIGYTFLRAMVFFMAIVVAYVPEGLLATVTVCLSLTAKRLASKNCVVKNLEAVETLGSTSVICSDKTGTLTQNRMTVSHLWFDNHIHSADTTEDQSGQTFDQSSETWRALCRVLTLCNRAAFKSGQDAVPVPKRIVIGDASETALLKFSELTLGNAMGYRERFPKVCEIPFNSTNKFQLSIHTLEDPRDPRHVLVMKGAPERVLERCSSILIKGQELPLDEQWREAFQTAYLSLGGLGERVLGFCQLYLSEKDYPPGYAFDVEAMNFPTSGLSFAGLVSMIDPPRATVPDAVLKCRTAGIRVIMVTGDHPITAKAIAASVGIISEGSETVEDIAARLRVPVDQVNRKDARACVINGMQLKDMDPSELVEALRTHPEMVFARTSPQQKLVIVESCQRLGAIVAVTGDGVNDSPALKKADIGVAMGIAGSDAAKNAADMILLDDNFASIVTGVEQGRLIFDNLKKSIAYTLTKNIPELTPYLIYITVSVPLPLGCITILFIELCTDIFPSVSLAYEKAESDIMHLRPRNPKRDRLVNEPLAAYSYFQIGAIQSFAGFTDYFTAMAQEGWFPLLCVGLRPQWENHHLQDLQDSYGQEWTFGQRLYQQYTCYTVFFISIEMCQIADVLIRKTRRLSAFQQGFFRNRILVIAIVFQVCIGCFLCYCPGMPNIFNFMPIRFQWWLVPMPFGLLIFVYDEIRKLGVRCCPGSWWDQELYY
Sequence of Proton Pump (H^+/K^+-ATPase) (P18434 whole entry partner): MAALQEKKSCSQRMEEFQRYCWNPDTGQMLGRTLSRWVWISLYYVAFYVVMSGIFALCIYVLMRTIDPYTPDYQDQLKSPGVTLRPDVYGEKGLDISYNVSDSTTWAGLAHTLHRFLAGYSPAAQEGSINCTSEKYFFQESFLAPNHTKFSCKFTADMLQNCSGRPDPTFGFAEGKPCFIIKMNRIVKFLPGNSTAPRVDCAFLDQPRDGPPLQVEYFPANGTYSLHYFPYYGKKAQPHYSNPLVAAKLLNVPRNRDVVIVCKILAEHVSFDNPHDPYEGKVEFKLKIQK
By IC50 is commonly meant the midpoint of a concentration-inhibition curve. Low readings indicate higher potency, high ones lower potency. Consider `Cc1c(C)n(Cc2cccc(F)c2)c2c(N3CCc4ccccc4C3)nc(CNC(C)(C)C)cc12` [Example 869, N-[7-(3,4-dihydro-1H-isoquinolin-2-yl)-1-(3-fluorobenzyl)-2,3-dimethyl-1H-pyrrolo[2,3-c]pyridin-5-ylmethyl]-tert-butylamine hydrochloride], for which the IC50 was 40 nM.

As to `C=CCCn1c(C)c(C)c2ccnc(N3CCc4ccccc4C3)c21` [Example 508, 1-(but-3-enyl)-7-(1,2,3,4-tetrahydroisoquinolin-2-yl)-2,3-dimethyl-1H-pyrrolo[2,3-c]pyridine hydrochloride], the 50% inhibitory concentration (IC50) turned out to be 320 nM. Take `CCN1CCN(C(=O)c2cc3c(C)c(C)n(CC4CC4)c3c(N3CCc4ccccc4C3)n2)CC1` [Example 818, [1-cyclopropylmethyl-7-(3,4-dihydro-1H-isoquinolin-2-yl)-2,3-dimethyl-1H-pyrrolo[2,3-c]pyridin-5-yl]-(4-ethylpiperazin-1-yl)-methanone hydrochloride]: the IC50 was determined as 34 nM. Consider `Cc1[nH]c2c(-c3ccc4ccccc4c3)nccc2c1C` [Example 410, 2,3-dimethyl-7-(naphthalen-2-yl)-1H-pyrrolo[2,3-c]pyridine sodium], for which half-maximal inhibition (IC50) required 99 nM. Then `Cc1c(C)n(Cc2ccccc2)c2c(C=Cc3ccccc3)nccc12` [Example 418, 1-benzyl-2,3-dimethyl-7-styryl-1H-pyrrolo[2,3-c]pyridine hydrochloride], with 290 nM. `Cc1[nH]c2c(-c3ccc(F)cc3)nccc2c1C` [Example 325, 7-(4-fluorophenyl)-2,3-dimethyl-1H-pyrrolo[2,3-c]pyridine hydrochloride]: the IC50 came to 1980 nM. The compound `Cc1ccc(Cn2c(C)c(C)c3ccnc(COc4ccc(F)cc4)c32)cc1` [Example 5, 7-(4-fluorophenoxymethyl)-2,3-dimethyl-1-(4-methylbenzyl)-1H-pyrrolo[2,3-c]pyridine hydrochloride] yielded an IC50 of 450 nM.

Regarding `COc1cccc(Cn2c(C)c(C)c3cc(N)nc(N4CCc5ccccc5C4)c32)c1` [Example 848, 7-(3,4-dihydro-1H-isoquinolin-2-yl)-1-(3-methoxybenzyl)-2,3-dimethyl-1H-pyrrolo[2,3-c]pyridin-5-amine hydrochloride], 29 nM corresponded to half-maximal inhibition (IC50). As for `Cc1c(C)n(CC2OCCO2)c2c(N(C)Cc3ccc(F)cc3)nccc12` [Example 158, 1-(1,3-dioxolan-2-ylmethyl)-7-[N-(4-fluorobenzyl)-N-methyl]amino-2,3-dimethyl-1H-pyrrolo[2,3-c]pyridine hydrochloride], the half-maximal inhibitory concentration (IC50) turned out to be 270 nM. `C=CCn1c(C)c(C)c2cc(C(=O)NCc3cccc(Cl)c3)nc(N3CCc4ccccc4C3)c21` [Example 758, 1-allyl-7-(3,4-dihydro-1H-isoquinolin-2-yl)-2,3-dimethyl-N-(3-chlorobenzyl)-1H-pyrrolo[2,3-c]pyridin-5-carboxamide hydrochloride] showed an IC50 of 316 nM. As to `Cc1c(C)n(CC2CC2)c2c(N3CCc4ccccc4C3)nc(C(=O)N3CCOCC3)cc12` [Example 778, [1-cyclopropylmethyl-7-(3,4-dihydro-1H-isoquinolin-2-yl)-2,3-dimethyl-1H-pyrrolo[2,3-c]pyridin-5-yl]-(morpholin-4-yl)-methanone hydrochloride], half-maximal inhibition (IC50) was put at 39 nM. `CNC(=O)c1cc2c(C)c(C)n(Cc3ccccc3)c2c(N2CCc3ccccc3C2)n1` [Example 772, 1-benzyl-7-(3,4-dihydro-1H-isoquinolin-2-yl)-2,3-dimethyl-N-methyl-1H-pyrrolo[2,3-c]pyridin-5-carboxamide hydrochloride] had a half-maximal inhibitory concentration (IC50) of 546 nM. Take `CCCn1c(C)c(C)c2cc(C(=O)N3CCN(C)CC3)nc(N3CCc4ccccc4C3)c21` [Example 825, [7-(3,4-dihydro-1H-isoquinolin-2-yl)-2,3-dimethyl-1-propyl-1H-pyrrolo[2,3-c]pyridin-5-yl]-(4-methylpiperazin-1-yl)-methanone hydrochloride]: it took 24 nM to reach half-maximal inhibition (IC50). `COCCn1c(C)c(C)c2ccnc(COc3ccc(F)cc3F)c21` [Example 34, 7-(2,4-difluorophenoxymethyl)-1-(2-methoxyethyl)-2,3-dimethyl-1H-pyrrolo[2,3-c]pyridine hydrochloride] came in with an IC50 of 1460 nM.

`C=CCn1c(C)c(C)c2ccnc(-c3ccc(OC)cc3)c21` [Example 360, 1-allyl-7-(4-methoxyphenyl)-2,3-dimethyl-1H-pyrrolo[2,3-c]pyridine hydrochloride] yielded an IC50 of 278 nM. In turn, `Cc1c(C)n(Cc2ccccc2)c2c(N3CCc4ccccc4C3)nc(C(=O)N(C)C)cc12` [Example 771, 1-benzyl-7-(3,4-dihydro-1H-isoquinolin-2-yl)-2,3-dimethyl-N-dimethyl-1H-pyrrolo[2,3-c]pyridin-5-carboxamide hydrochloride] came in with an IC50 of 36 nM. `Cc1[nH]c2c(N3CCc4ccccc4C3)nc(C(=O)N3CCCCC3)cc2c1C` [Example 791, [7-(3,4-dihydro-1H-isoquinolin-2-yl)-2,3-dimethyl-1H-pyrrolo[2,3-c]pyridin-5-yl]-(piperidin-1-yl)-methanone hydrochloride]: the concentration for half-maximal inhibition (IC50) came out at 122 nM. Compound `CC(C)=CCn1c(C)c(C)c2ccnc(CN(C)c3ccc(F)cc3)c21` [Example 119, N-[2,3-dimethyl-1-(3-methylbut-2-enyl)-1H-pyrrolo[2,3-c]pyridin-7-ylmethyl]-N-(4-fluorophenyl)-methylamine hydrochloride] registered an IC50 of 405 nM. Consider `C=CCn1c(C)c(C)c2cc(C(=O)NC3CC3)nc(N3CCc4ccccc4C3)c21` [Example 761, 1-allyl-7-(3,4-dihydro-1H-isoquinolin-2-yl)-2,3-dimethyl-N-cyclopropyl-1H-pyrrolo[2,3-c]pyridin-5-carboxamide], for which inhibition was half-maximal at 125 nM (IC50).

In turn, `CCn1c(C)c(C)c2cc(C(=O)N3CCN(c4ccccc4)CC3)nc(N3CCc4ccccc4C3)c21` [Example 810, [7-(3,4-dihydro-1H-isoquinolin-2-yl)-1-ethyl-2,3-dimethyl-1H-pyrrolo[2,3-c]pyridin-5-yl]-(4-phenylpiperazin-1-yl)-methanone hydrochloride] gave a concentration for half-maximal inhibition (IC50) of 436 nM. `Cc1c(C)n(Cc2cccc(F)c2)c2c(N3CCc4ccccc4C3)nc(C(C)O)cc12` (stereo not shown) [Example 860, 1-[7-(3,4-dihydro-1H-isoquinolin-2-yl)-1-(3-fluorobenzyl)-2,3-dimethyl-1H-pyrrolo[2,3-c]pyridin-5-yl]-ethanol hydrochloride] registered an IC50 of 313 nM. `Cc1c(C)n(CC(C)C)c2c(CCc3ccccc3)nccc12` [Example 447, 1-isobutyl-2,3-dimethyl-7-phenethyl-1H-pyrrolo[2,3-c]pyridine hydrochloride] yielded a concentration for half-maximal inhibition (IC50) of 460 nM. The compound `Cc1ccc(-c2nccc3c(C)c(C)n(Cc4ccc(Cl)c(Cl)c4)c23)cc1` [Example 296, 1-(3,4-dichlorobenzyl)-2,3-dimethyl-7-(p-tolyl)-1H-pyrrolo[2,3-c]pyridine hydrochloride] returned an IC50 of 5080 nM. For the compound `CCOCCn1c(C)c(C)c2ccnc(N3CCc4ccccc4C3)c21` [Example 503, 1-(2-ethoxyethyl)-7-(1,2,3,4-tetrahydroisoquinolin-2-yl)-2,3-dimethyl-1H-pyrrolo[2,3-c]pyridine hydrochloride], 160 nM corresponded to half-maximal inhibition (IC50). Regarding `Cc1c(C)n(CC2CC2)c2c(NCc3ccccc3)nccc12` [Example 185, 7-benzylamino-1-cyclopropylmethyl-2,3-dimethyl-1H-pyrrolo[2,3-c]pyridine hydrochloride], half-maximal inhibition (IC50) was put at 320 nM. `Cc1c(CO)c2ccnc(-c3ccc4ccccc4c3)c2n1Cc1cccc(F)c1` [Example 411, 1-(3-fluorobenzyl)-3-hydroxymethyl-2-methyl-7-(naphthalen-2-yl)-1H-pyrrolo[2,3-c]pyridine hydrochloride] returned a 50% inhibitory concentration (IC50) of 284 nM.

`C=CCn1c(C)c(C)c2ccnc(N3CCc4ccccc4C3)c21` [Example 485, 1-allyl-7-(1,2,3,4-tetrahydroisoquinolin-2-yl)-2,3-dimethyl-1H-pyrrolo[2,3-c]pyridine citrate] gave a concentration for half-maximal inhibition (IC50) of 6 nM.

Compound `Cc1c(C)n(Cc2ccc(Cl)s2)c2c(N3CCc4ccccc4C3)nccc12` [Example 514, 1-(5-chlorothiophene-2-ylmethyl)-7-(1,2,3,4-tetrahydroisoquinolin-2-yl)-2,3-dimethyl-1H-pyrrolo[2,3-c]pyridine hydrochloride] registered an IC50 of 200 nM. Regarding `C=CCCn1c(C)c(C)c2ccnc(NCc3ccccc3)c21` [Example 181, 7-benzylamino-1-(but-3-enyl)-2,3-dimethyl-1H-pyrrolo[2,3-c]pyridine hydrochloride], the IC50 was 360 nM. As for `Cc1c(C)n(Cc2cccc(F)c2)c2c(N3CCc4ccccc4C3)nc(CNc3ccc(F)cc3)cc12` [Example 866, N-[7-(3,4-dihydro-1H-isoquinolin-2-yl)-1-(3-fluorobenzyl)-2,3-dimethyl-1H-pyrrolo[2,3-c]pyridin-5-ylmethyl]-4-fluorophenylamine hydrochloride], the figure is 1030 nM; as for `CCC1c2ccccc2CCN1c1nccc2c(C)c(C)n(C)c12` (stereo not shown) [Example 575, 1-ethyl-2-(1,2,3-trimethyl-1H-pyrrolo[2,3-c]pyridin-7-yl)-1,2,3,4-tetrahydroisoquinoline hydrochloride], 470 nM. As to `COc1cccc(Cn2c(C)c(C)c3cc(C(=O)n4ccnc4)nc(N4CCc5ccccc5C4)c32)c1` [Example 841, [7-(3,4-dihydro-1H-isoquinolin-2-yl)-1-(3-methoxybenzyl)-2,3-dimethyl-1H-pyrrolo[2,3-c]pyridin-5-yl]-(imidazol-1-yl)-methanone hydrochloride], the IC50 stood at 242 nM. Then `Cc1c(C)n(Cc2cccc(F)c2)c2c(N3CCc4ccccc4C3)nc(C(=O)O)cc12` [Example 737, 7-(3,4-dihydro-1H-isoquinolin-2-yl)-1-(3-fluorobenzyl)-2,3-dimethyl-1H-pyrrolo[2,3-c]pyridin-5-carboxylic acid], with 25 nM.

`CCNCc1cc2c(C)c(C)n(Cc3cccc(F)c3)c2c(N2CCc3ccccc3C2)n1` [Example 868, N-[7-(3,4-dihydro-1H-isoquinolin-2-yl)-1-(3-fluorobenzyl)-2,3-dimethyl-1H-pyrrolo[2,3-c]pyridin-5-ylmethyl]-ethylamine hydrochloride] returned an IC50 of 39 nM.
